Measurements from ChEMBL document CHEMBL5331071, “Structure-activity relationship study of amidobenzimidazole derivatives as stimulator of interferon genes (STING) agonists” (Eur J Med Chem, 2023).

Assays:
THP1-Dual = experiment: Cytotoxicity against human THP1-Dual habouring STING assessed as inhibition of cell growth by MTS assay; format: functional, cell-based
[1] = biological target: T1, Stimulator of interferon genes protein (Homo sapiens, UniProt Q86WV6); experiment: Agonist activity at STING in human […] KO-STING cells incubated for 20 hrs by Quanti-luc reagent based assay; format: cell-based, THP1-Dual KO-STING
[2] = Cytotoxicity against human THP1-Dual KO-STING cells assessed as inhibition of cell growth by MTS assay; format: functional, cell-based
[3] = biological target: T1, Stimulator of interferon genes protein; experiment: Agonist activity at STING in human THP1-Dual cells incubated for 20 hrs by Quanti-luc reagent based assay; format: cell-based

T1 sequence (Q86WV6 whole entry): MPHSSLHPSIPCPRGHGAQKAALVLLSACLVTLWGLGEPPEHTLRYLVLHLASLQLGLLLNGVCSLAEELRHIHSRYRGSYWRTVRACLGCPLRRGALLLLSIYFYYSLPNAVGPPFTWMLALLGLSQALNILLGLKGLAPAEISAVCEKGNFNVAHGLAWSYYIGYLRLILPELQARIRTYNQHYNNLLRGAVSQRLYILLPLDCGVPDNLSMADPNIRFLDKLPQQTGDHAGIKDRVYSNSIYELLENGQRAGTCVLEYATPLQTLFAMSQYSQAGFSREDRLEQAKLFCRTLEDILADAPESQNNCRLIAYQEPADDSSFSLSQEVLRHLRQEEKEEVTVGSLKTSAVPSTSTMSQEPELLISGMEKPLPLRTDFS

Row | SMILES | IC50 (THP1-Dual) [µM] | EC50 [1] [µM] | IC50 [2] [µM] | EC50 [3] [µM]
1 | CCn1nc(C)cc1C(=O)Nc1nc2cc(C(N)=O)cc(OC)c2n1C/C=C/CNC(=O)c1ccccn1 | > 100 | > 100 | > 100 | > 100
2 | CCn1nc(C)cc1C(=O)Nc1nc2cc(C(N)=O)cc(OCCCN3CCOCC3)c2n1NCCCC(=O)NCc1ccc(F)cc1 | > 100 | > 100 | > 100 | 9.73
3 | CCn1nc(C)cc1C(=O)Nc1nc2cc(C(N)=O)cc(OC)c2n1C/C=C/CNC(=O)NCc1ccccc1 | > 100 | > 100 | > 100 | > 100
4 | CCn1nc(C)cc1C(=O)Nc1nc2cc(C(N)=O)cc(OC)c2n1C/C=C/CNC(=O)c1ccc(F)cc1 | > 100 | > 100 | > 100 | > 100
5 | CCn1nc(C)cc1C(=O)Nc1nc2cc(C(N)=O)cc(OC)c2n1NCCCC(=O)NCc1ccc(Br)cc1F | > 100 | > 100 | > 100 | 5.28
6 | CCn1nc(C)cc1C(=O)Nc1nc2cc(C(N)=O)cc(OC)c2n1NCCCC(=O)NCc1ccc(Cl)cc1 | > 100 | > 100 | > 100 | 3.22
7 | CCn1nc(C)cc1C(=O)Nc1nc2cc(C(N)=O)cc(OC)c2n1NCCCNC(=O)Nc1ccc2ccccc2c1 | > 100 | > 100 | > 100 | > 100
8 | CCn1nc(C)cc1C(=O)Nc1nc2cc(C(N)=O)cc(OCC3COC3)c2n1NCCCC(=O)NCc1ccc(F)cc1 | > 100 | > 100 | > 100 | 7.13
9 | CCn1nc(C)cc1C(=O)Nc1nc2cc(C(N)=O)cc(OC)c2n1CCOCCNC(=O)c1ccc2ccccc2c1 | > 100 | > 100 | > 100 | > 100
10 | CCn1nc(C)cc1C(=O)Nc1nc2cc(C(N)=O)cc(OC)c2n1CCOCCNC(=O)c1ccc(C(F)(F)F)cc1 | > 100 | > 100 | > 100 | > 100
11 | CCn1nc(C)cc1C(=O)Nc1nc2cc(C(N)=O)cc(OC)c2n1C/C=C/CNC(=O)c1ccoc1 | > 100 | > 100 | > 100 | > 100
